Laboratory results from patent US9695155B2, “Herbicidal substituted pyrimidinyloxy benzene compounds” (E. I. DU PONT DE NEMOURS AND COMPANY, priority 2013, dated 2017).

Key:
corn [1] = test: Test A postemergence; format: in vivo, Zea mays
How it was run: (§1)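 Greenhouse pot test, loam/sand soil. Formulation: non-phytotoxic solvent mix plus surfactant. Pre: directed spray onto soil after sowing. Post: plants at 1–2 leaf, 2–10 cm. Rated visually vs untreated controls at ~10 d, 0 (no effect) to 100 (complete control).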

ragweed [2] = test: Test A postemergence; format: in vivo, Ambrosia elatior; details: 0 to 100 scale where 0 is no effect and 100 is complete control
How it was run: as §1

kochia [3] = test: Test A postemergence; format: in vivo, Kochia scoparia; details: 0 to 100 scale where 0 is no effect and 100 is complete control
How it was run: as §1

kochia [4] = test: Test A preemergence; format: in vivo, Kochia scoparia; details: 0 to 100 scale where 0 is no effect and 100 is complete control
How it was run: as §1

morningglory = test: Test C preemergence; format: in vivo, Ipomoea coccinea; details: for Morningglory plant response rating: preemergence; for Plant response rating, Morningglory: Preemergence, 31 g ai/ha, scale 0 to 100, 0 no effect, 100 complete control
How it was run: (§2)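 Plants were kept under greenhouse conditions for 13–15 days following spray. Pre-emergent application went to soil (loam–sand), post-emergent to foliage at 1–4 leaves. Evaluation: visual, percent control against untreated checks.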

wheat, winter [5] = test: Test C preemergence; format: in vivo, Triticum aestivum; details: for Wheat plant response rating: preemergence; for Plant response rating, Wheat: Preemergence, 31 g ai/ha, scale 0 to 100, 0 no effect, 100 complete control
How it was run: as §2

barnyardgrass [6] = test: Test A postemergence; format: in vivo, Echinochloa crus-galli
How it was run: as §1

Italian ryegrass = test: Test C preemergence; format: in vivo, Lolium multiflorum; details: for Ryegrass, Italian plant response rating: preemergence; for Plant response rating, Ryegrass, Italian: Preemergence, 31 g ai/ha, scale 0 to 100, 0 no effect, 100 complete control
How it was run: as §2

velvetleaf = test: Test C preemergence; format: in vivo, Abutilon theophrasti; details: for Velvetleaf plant response rating: preemergence; for Plant response rating, Velvetleaf: Preemergence, 31 g ai/ha, scale 0 to 100, 0 no effect, 100 complete control
How it was run: as §2

soybean = test: Test C preemergence; format: in vivo, Glycine max; details: for Soybean plant response rating: preemergence; for Plant response rating, Soybean: Preemergence, 31 g ai/ha, scale 0 to 100, 0 no effect, 100 complete control
How it was run: as §2

corn [7] = test: Test A preemergence; format: in vivo, Zea mays
How it was run: as §1

ragweed [8] = test: Test C postemergence; format: in vivo, Ambrosia elatior; details: for Plant response rating (0 to 100), Ragweed: postemergence; for Plant response rating, Ragweed: Postemergence, scale 0 to 100 (0 no effect, 100 complete control)
How it was run: as §2

waterhemp = test: Test C postemergence; format: in vivo, Amaranthus rudis; details: for Plant response rating (0 to 100), Waterhemp: postemergence; for Plant response rating, Waterhemp: Postemergence, scale 0 to 100 (0 no effect, 100 complete control)
How it was run: as §2

yellow nutsedge = test: Test C postemergence; format: in vivo, Cyperus esculentus; details: for Plant response rating (0 to 100), Nutsedge, Yellow: postemergence; for Plant response rating, Nutsedge, Yellow: Postemergence, scale 0 to 100 (0 no effect, 100 complete control)
How it was run: as §2

wheat, winter [9] = test: Test C postemergence; format: in vivo, Triticum aestivum; details: for Plant response rating (0 to 100), Wheat: postemergence; for Plant response rating, Wheat: Postemergence, scale 0 to 100 (0 no effect, 100 complete control)
How it was run: as §2

wild oat = test: Test C postemergence; format: in vivo, Avena fatua; details: for Plant response rating (0 to 100), Oat, Wild: postemergence; for Plant response rating, Oat, Wild: Postemergence, scale 0 to 100 (0 no effect, 100 complete control)
How it was run: as §2

galium = test: Test C postemergence; format: in vivo, Galium aparine; details: for Plant response rating (0 to 100), Galium: postemergence; for Plant response rating, Galium: Postemergence, scale 0 to 100 (0 no effect, 100 complete control)
How it was run: as §2

barnyardgrass [10] = test: Test C postemergence; format: in vivo, Echinochloa crus-galli; details: for Plant response rating (0 to 100), Barnyardgrass: postemergence; for Plant response rating, Barnyardgrass: Postemergence, scale 0 to 100 (0 no effect, 100 complete control)
How it was run: as §2

[11] = 125 g ai/ha, 0 to 100 scale where 0 is no effect and 100 is complete control
[12] = 500 g ai/ha, 0 to 100 scale where 0 is no effect and 100 is complete control
[13] = 8 g ai/ha, scale 0 to 100 (0 no effect, 100 complete control)
[14] = 16 g ai/ha, scale 0 to 100 (0 no effect, 100 complete control)
[15] = 62 g ai/ha, scale 0 (no effect) to 100 (complete control)
[16] = 500 g ai/ha, 0 to 100 scale, 0 no effect, 100 complete control
[17] = 125 g ai/ha, scale 0 (no effect) to 100 (complete control)
[18] = 250 g ai/ha, scale 0 (no effect) to 100 (complete control)

N#Cc1cnn(-c2c(C#N)cccc2Oc2ncc(Br)cn2)c1 [Compound 135]
Corn plant response rating (corn [1]; [11]): 10
Plant response rating, Corn (corn [1]; [12]): 80
Ragweed plant response rating (ragweed [2]; 125 g ai/ha): 60
Plant response rating, Ragweed (ragweed [2]; 500 g ai/ha): 100
Kochia plant response rating (kochia [3]; 125 g ai/ha): 20
Plant response rating, Kochia (kochia [3]; 500 g ai/ha): 70
Plant response rating, Kochia (kochia [4]; 125 g ai/ha): 100
Kochia plant response rating (kochia [4]; 500 g ai/ha): 100
Morningglory plant response rating (morningglory; [13]): 5
Morningglory plant response rating (morningglory; [14]): 50
Morningglory plant response rating (morningglory; [15]): 80
Plant response rating, Morningglory (morningglory): 50
Wheat plant response rating (wheat, winter [5]; [13]): 0
Wheat plant response rating (wheat, winter [5]; [14]): 0
Wheat plant response rating (wheat, winter [5]; [15]): 0
Plant response rating, Wheat (wheat, winter [5]): 0
Barnyardgrass plant response rating (barnyardgrass [6]; [11]): 40
Plant response rating, Barnyardgrass (barnyardgrass [6]; [12]): 100
Ryegrass, Italian plant response rating (Italian ryegrass; [13]): 0
Ryegrass, Italian plant response rating (Italian ryegrass; [14]): 0
Ryegrass, Italian plant response rating (Italian ryegrass; [15]): 10
Plant response rating, Ryegrass, Italian (Italian ryegrass): 5
Velvetleaf plant response rating (velvetleaf; [13]): 5
Velvetleaf plant response rating (velvetleaf; [14]): 40
Velvetleaf plant response rating (velvetleaf; [15]): 85
Plant response rating, Velvetleaf (velvetleaf): 45
Soybean plant response rating (soybean; [13]): 10
Soybean plant response rating (soybean; [14]): 20
Soybean plant response rating (soybean; [15]): 85
Plant response rating, Soybean (soybean): 65

N#Cc1cccc(Oc2ncc(Cl)cn2)c1-n1cc(Cl)cn1 [Compound 72]
Plant response rating, Corn (corn [7]; [11]): 30
Corn plant response rating (corn [7]; 500 g ai/ha, 0 to 100 scale, 0 no effect, 100 complete control, approx. 10 days): 50
Plant response rating (0 to 100), Ragweed (ragweed [8]; 125 g ai/ha): 60
Plant response rating (0 to 100), Ragweed (ragweed [8]; 250 g ai/ha): 60
Plant response rating, Ragweed (ragweed [8]; 31 g ai/ha, 13 to 15 days): 40
Plant response rating, Ragweed (ragweed [8]; 62 g ai/ha): 40
Plant response rating (0 to 100), Waterhemp (waterhemp; 125 g ai/ha): 75
Plant response rating (0 to 100), Waterhemp (waterhemp; 250 g ai/ha): 95
Plant response rating, Waterhemp (waterhemp; 31 g ai/ha, 13 to 15 days): 75
Plant response rating, Waterhemp (waterhemp; 62 g ai/ha): 75
Plant response rating, Corn (corn [1]; [11]): 50
Plant response rating, Corn (corn [1]; [16]): 60
Plant response rating (0 to 100), Nutsedge, Yellow (yellow nutsedge; 125 g ai/ha): 0
Plant response rating (0 to 100), Nutsedge, Yellow (yellow nutsedge; 250 g ai/ha): 10
Plant response rating, Nutsedge, Yellow (yellow nutsedge; 31 g ai/ha, 13 to 15 days): 0
Plant response rating, Nutsedge, Yellow (yellow nutsedge; 62 g ai/ha): 0
Morningglory plant response rating (morningglory; [15]): 85
Morningglory plant response rating (morningglory; [17]): 100
Morningglory plant response rating (morningglory; [18]): 100
Plant response rating, Morningglory (morningglory): 15
Plant response rating (0 to 100), Wheat (wheat, winter [9]; 125 g ai/ha): 0
Plant response rating (0 to 100), Wheat (wheat, winter [9]; 250 g ai/ha): 5
Plant response rating, Wheat (wheat, winter [9]; 31 g ai/ha, 13 to 15 days): 0
Plant response rating, Wheat (wheat, winter [9]; 62 g ai/ha): 0
Wheat plant response rating (wheat, winter [5]; [15]): 0
Wheat plant response rating (wheat, winter [5]; [17]): 30
Wheat plant response rating (wheat, winter [5]; [18]): 35
Plant response rating, Wheat (wheat, winter [5]): 0
Plant response rating (0 to 100), Oat, Wild (wild oat; 125 g ai/ha): 30
Plant response rating (0 to 100), Oat, Wild (wild oat; 250 g ai/ha): 35
Plant response rating, Oat, Wild (wild oat; 31 g ai/ha, 13 to 15 days): 5
Plant response rating, Oat, Wild (wild oat; 62 g ai/ha): 5
Plant response rating, Barnyardgrass (barnyardgrass [6]; [11]): 90
Plant response rating, Barnyardgrass (barnyardgrass [6]; [16]): 100
Ryegrass, Italian plant response rating (Italian ryegrass; [15]): 10
Ryegrass, Italian plant response rating (Italian ryegrass; [17]): 40
Ryegrass, Italian plant response rating (Italian ryegrass; [18]): 80
Plant response rating, Ryegrass, Italian (Italian ryegrass): 5
Velvetleaf plant response rating (velvetleaf; [15]): 95
Velvetleaf plant response rating (velvetleaf; [17]): 100
Velvetleaf plant response rating (velvetleaf; [18]): 100
Plant response rating, Velvetleaf (velvetleaf): 60
Plant response rating (0 to 100), Galium (galium; 125 g ai/ha): 95
Plant response rating (0 to 100), Galium (galium; 250 g ai/ha): 95
Plant response rating, Galium (galium; 31 g ai/ha, 13 to 15 days): 75
Plant response rating, Galium (galium; 62 g ai/ha): 80
Soybean plant response rating (soybean; [15]): 55
Soybean plant response rating (soybean; [17]): 80
Soybean plant response rating (soybean; [18]): 85
Plant response rating, Soybean (soybean): 40
Plant response rating (0 to 100), Barnyardgrass (barnyardgrass [10]; 125 g ai/ha): 10
Plant response rating (0 to 100), Barnyardgrass (barnyardgrass [10]; 250 g ai/ha): 40
Plant response rating, Barnyardgrass (barnyardgrass [10]; 31 g ai/ha, 13 to 15 days): 5
Plant response rating, Barnyardgrass (barnyardgrass [10]; 62 g ai/ha): 5
